Reference: patent US20230143604A1, “QW DOSING OF GIP RECEPTOR AGONIST PEPTIDE COMPOUNDS AND USES THEREOF” (TAKEDA PHARMACEUTICAL COMPANY LIMITED, priority 2020, published 2023)
Starred links: 1 amine or outer side, 2 acyl side, 3 side chain; linkers in the order of their positions; H or OH if unused. Non-standard residues stand in square brackets, D forms with d. Residues, ends and D or L forms follow the SMILES beside them. Groups on a side chain read outwards from the residue. *: point of attachment. C18 diacid = O=C(O)CCCCCCCCCCCCCCCCC(=O)*; γGlu = O=C(O)[C@H](CCC(=O)[*:2])N[*:1]; NMeY = CN[C@@H](Cc1ccc(O)cc1)C(=O)O; AEEA = NCCOCCOCC(=O)O; Aib = CC(C)(N)C(=O)O

Experiment: physchem
Outline: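 3 mg of peptide treated with 100 μL portions of 200 mM phosphate buffer pH 7.4, sonicating/vortexing up to 1 min, with further buffer added until fully dissolved. Solubility then quantified by HPLC.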

[1] = pH 7.4, aqueous buffer, pH 7.4 Phosphate Buffer - Solubility, 200 mM Phosphate buffer pH 7.4
[2] = pH 7.4, solubility in phosphate buffer at pH 7.4, 200 mM phosphate buffer pH 7.4

Structure (SMILES) | solubility (pH 7.4) | solubility (pH 7.4, aqueous buffer) | solubility [1] | solubility [2]
CC[C@H](C)[C@H](NC(=O)[C@H](CO)NC(=O)[C@H](Cc1ccc(O)cc1)NC(=O)[C@H](CC(=O)O)NC(=O)[C@H](CO)NC(=O)[C@@H](NC(=O)[C@H](Cc1ccccc1)NC(=O)[C@@H](NC(=O)CNC(=O)[C@H](CCC(=O)O)NC(=O)C(C)(C)NC(=O)[C@H](Cc1ccc(O)cc1)NC)[C@@H](C)O)[C@@H](C)CC)C(=O)N[C@@H](C)C(=O)N[C@@H](CC(C)C)C(=O)N[C@@H](CC(=O)O)C(=O)N[C@@H](CCCNC(=N)N)C(=O)NC(C)(C)C(=O)N[C@@H](C)C(=O)N[C@@H](CCC(N)=O)C(=O)NC(C)(C)C(=O)N[C@@H](CCCCNC(=O)COCCOCCNC(=O)COCCOCCNC(=O)CC[C@H](NC(=O)CC[C@H](NC(=O)CCCCCCCCCCCCCCCCC(=O)O)C(=O)O)C(=O)O)C(=O)N[C@@H](Cc1ccccc1)C(=O)N[C@H](C(=O)N[C@@H](CC(N)=O)C(=O)N[C@@H](Cc1c[nH]c2ccccc12)C(=O)N[C@@H](CC(C)C)C(=O)N[C@@H](CC(C)C)C(=O)N[C@@H](C)C(=O)N[C@@H](CCC(N)=O)C(=O)N[C@@H](CO)C(=O)N1CCC[C@H]1C(=O)NCC(=O)O)C(C)C [Compound 86] (H-[NMeY][Aib]EGTFISDYSIALDR[Aib]AQ[Aib]K([AEEA-AEEA-γGlu-γGlu-C18 diacid])FVNWLLAQSPG-OH) | ≥ 15 mg/mL | ≥ 30 mg/mL | – | –
CC[C@H](C)[C@H](NC(=O)[C@H](Cc1ccccc1)NC(=O)[C@@H](NC(=O)CNC(=O)[C@H](CCC(=O)O)NC(=O)C(C)(C)NC(=O)[C@H](Cc1ccc(O)cc1)NC)[C@@H](C)O)C(=O)N[C@@H](CO)C(=O)N[C@@H](CC(=O)O)C(=O)N[C@@H](Cc1ccc(O)cc1)C(=O)N[C@@H](CO)C(=O)N[C@H](C(=O)NC(C)(C)C(=O)N[C@@H](CC(C)C)C(=O)N[C@@H](CC(=O)O)C(=O)N[C@@H](CCCNC(=N)N)C(=O)NC(C)(C)C(=O)N[C@@H](CCCCNC(=O)COCCOCCNC(=O)COCCOCCNC(=O)CC[C@H](NC(=O)CC[C@H](NC(=O)CCCCCCCCCCCCCCCCC(=O)O)C(=O)O)C(=O)O)C(=O)N[C@@H](CCC(N)=O)C(=O)NC(C)(C)C(=O)N[C@@H](CC(=O)O)C(=O)N[C@@H](Cc1ccccc1)C(=O)N[C@H](C(=O)N[C@@H](CC(N)=O)C(=O)N[C@@H](Cc1c[nH]c2ccccc12)C(=O)N[C@@H](CC(C)C)C(=O)N[C@@H](CC(C)C)C(=O)N[C@@H](C)C(=O)N[C@@H](CCC(N)=O)C(=O)N[C@@H](CO)C(=O)N1CCC[C@H]1C(=O)NCC(=O)O)C(C)C)[C@@H](C)CC [Compound 87] (H-[NMeY][Aib]EGTFISDYSI[Aib]LDR[Aib]K([AEEA-AEEA-γGlu-γGlu-C18 diacid])Q[Aib]DFVNWLLAQSPG-OH) | ≥ 15 mg/mL | ≥ 30 mg/mL | – | –
CC[C@H](C)[C@H](NC(=O)[C@H](Cc1ccccc1)NC(=O)[C@@H](NC(=O)CNC(=O)[C@H](CCC(=O)O)NC(=O)C(C)(C)NC(=O)[C@H](Cc1ccc(O)cc1)NC)[C@@H](C)O)C(=O)N[C@@H](CO)C(=O)N[C@@H](CC(=O)O)C(=O)N[C@@H](Cc1ccc(O)cc1)C(=O)N[C@@H](CO)C(=O)N[C@H](C(=O)NC(C)(C)C(=O)N[C@@H](CC(C)C)C(=O)N[C@@H](CC(=O)O)C(=O)N[C@@H](CCCNC(=N)N)C(=O)NC(C)(C)C(=O)N[C@@H](C)C(=O)N[C@@H](CCC(N)=O)C(=O)NC(C)(C)C(=O)N[C@@H](CCCCNC(=O)COCCOCCNC(=O)COCCOCCNC(=O)CC[C@H](NC(=O)CC[C@H](NC(=O)CCCCCCCCCCCCCCCCC(=O)O)C(=O)O)C(=O)O)C(=O)N[C@@H](Cc1ccccc1)C(=O)N[C@H](C(=O)N[C@@H](CC(N)=O)C(=O)N[C@@H](Cc1c[nH]c2ccccc12)C(=O)N[C@@H](CC(C)C)C(=O)N[C@@H](CC(C)C)C(=O)N[C@@H](C)C(=O)N[C@@H](CCC(N)=O)C(=O)N[C@@H](CCCNC(=N)N)C(=O)N1CCC[C@H]1C(=O)N[C@@H](CO)C(=O)N[C@@H](CO)C(=O)NCC(=O)N[C@@H](C)C(=O)N1CCC[C@H]1C(=O)N1CCC[C@H]1C(=O)N1CCC[C@H]1C(=O)N[C@@H](CO)C(N)=O)C(C)C)[C@@H](C)CC [Compound 89] (H-[NMeY][Aib]EGTFISDYSI[Aib]LDR[Aib]AQ[Aib]K([AEEA-AEEA-γGlu-γGlu-C18 diacid])FVNWLLAQRPSSGAPPPS-NH2) | – | – | ≥ 60 mg/mL | ≥ 15 mg/mL
CC[C@H](C)[C@H](NC(=O)[C@H](Cc1ccccc1)NC(=O)[C@@H](NC(=O)CNC(=O)[C@H](CCC(=O)O)NC(=O)C(C)(C)NC(=O)[C@H](Cc1ccc(O)cc1)NC)[C@@H](C)O)C(=O)N[C@@H](CO)C(=O)N[C@@H](CC(=O)O)C(=O)N[C@@H](Cc1ccc(O)cc1)C(=O)N[C@@H](CO)C(=O)N[C@H](C(=O)NC(C)(C)C(=O)N[C@@H](CC(C)C)C(=O)N[C@@H](CC(=O)O)C(=O)N[C@@H](CCCNC(=N)N)C(=O)NC(C)(C)C(=O)N[C@@H](C)C(=O)N[C@@H](CCC(N)=O)C(=O)NC(C)(C)C(=O)N[C@@H](CCCCNC(=O)COCCOCCNC(=O)COCCOCCNC(=O)CC[C@H](NC(=O)CC[C@H](NC(=O)CCCCCCCCCCCCCCCCC(=O)O)C(=O)O)C(=O)O)C(=O)N[C@@H](Cc1ccccc1)C(=O)N[C@H](C(=O)N[C@@H](CC(N)=O)C(=O)N[C@@H](Cc1c[nH]c2ccccc12)C(=O)N[C@@H](CC(C)C)C(=O)N[C@@H](CC(C)C)C(=O)N[C@@H](C)C(=O)N[C@@H](CCC(N)=O)C(=O)N[C@@H](CO)C(=O)N1CCC[C@H]1C(=O)N[C@@H](CO)C(=O)N[C@@H](CO)C(=O)NCC(=O)N[C@@H](C)C(=O)N1CCC[C@H]1C(=O)N1CCC[C@H]1C(=O)N1CCC[C@H]1C(=O)N[C@@H](CO)C(N)=O)C(C)C)[C@@H](C)CC [Compound 90] (H-[NMeY][Aib]EGTFISDYSI[Aib]LDR[Aib]AQ[Aib]K([AEEA-AEEA-γGlu-γGlu-C18 diacid])FVNWLLAQSPSSGAPPPS-NH2) | – | – | ≥ 60 mg/mL | ≥ 15 mg/mL
CC[C@H](C)[C@H](NC(=O)[C@H](Cc1ccccc1)NC(=O)[C@@H](NC(=O)CNC(=O)[C@H](CCC(=O)O)NC(=O)C(C)(C)NC(=O)[C@H](Cc1ccc(O)cc1)NC)[C@@H](C)O)C(=O)N[C@@H](CO)C(=O)N[C@@H](CC(=O)O)C(=O)N[C@@H](Cc1ccc(O)cc1)C(=O)N[C@@H](CO)C(=O)N[C@H](C(=O)NC(C)(C)C(=O)N[C@@H](CC(C)C)C(=O)N[C@@H](CC(=O)O)C(=O)N[C@@H](CCCNC(=N)N)C(=O)NC(C)(C)C(=O)N[C@@H](C)C(=O)N[C@@H](CCC(N)=O)C(=O)NC(C)(C)C(=O)N[C@@H](CCCCNC(=O)COCCOCCNC(=O)COCCOCCNC(=O)CC[C@H](NC(=O)CCCCCCCCCCCCCCCCC(=O)O)C(=O)O)C(=O)N[C@@H](Cc1ccccc1)C(=O)N[C@H](C(=O)N[C@@H](CC(N)=O)C(=O)N[C@@H](Cc1c[nH]c2ccccc12)C(=O)N[C@@H](CC(C)C)C(=O)N[C@@H](CC(C)C)C(=O)N[C@@H](C)C(=O)N[C@@H](CCC(N)=O)C(=O)N[C@@H](CO)C(=O)N1CCC[C@H]1C(=O)N[C@@H](CO)C(=O)N[C@@H](CO)C(=O)NCC(=O)N[C@@H](C)C(=O)N1CCC[C@H]1C(=O)N1CCC[C@H]1C(=O)N1CCC[C@H]1C(=O)N[C@@H](CO)C(N)=O)C(C)C)[C@@H](C)CC [Compound 91] (H-[NMeY][Aib]EGTFISDYSI[Aib]LDR[Aib]AQ[Aib]K([AEEA-AEEA-γGlu-C18 diacid])FVNWLLAQSPSSGAPPPS-NH2) | – | – | ≥ 60 mg/mL | ≥ 15 mg/mL
CC[C@H](C)[C@H](NC(=O)[C@H](Cc1ccccc1)NC(=O)[C@@H](NC(=O)CNC(=O)[C@H](CCC(=O)O)NC(=O)C(C)(C)NC(=O)[C@H](Cc1ccc(O)cc1)NC)[C@@H](C)O)C(=O)N[C@@H](CO)C(=O)N[C@@H](CC(=O)O)C(=O)N[C@@H](Cc1ccc(O)cc1)C(=O)N[C@@H](CO)C(=O)N[C@H](C(=O)NC(C)(C)C(=O)N[C@@H](CC(C)C)C(=O)N[C@@H](CC(=O)O)C(=O)N[C@@H](CCCNC(=N)N)C(=O)NC(C)(C)C(=O)N[C@@H](C)C(=O)N[C@@H](CCC(N)=O)C(=O)NC(C)(C)C(=O)N[C@@H](CCCCNC(=O)COCCOCCNC(=O)CC[C@H](NC(=O)COCCOCCNC(=O)CC[C@H](NC(=O)CCCCCCCCCCCCCCCCC(=O)O)C(=O)O)C(=O)O)C(=O)N[C@@H](Cc1ccccc1)C(=O)N[C@H](C(=O)N[C@@H](CC(N)=O)C(=O)N[C@@H](Cc1c[nH]c2ccccc12)C(=O)N[C@@H](CC(C)C)C(=O)N[C@@H](CC(C)C)C(=O)N[C@@H](C)C(=O)N[C@@H](CCC(N)=O)C(=O)N[C@@H](CO)C(=O)N1CCC[C@H]1C(=O)N[C@@H](CO)C(=O)N[C@@H](CO)C(=O)NCC(=O)N[C@@H](C)C(=O)N1CCC[C@H]1C(=O)N1CCC[C@H]1C(=O)N1CCC[C@H]1C(=O)N[C@@H](CO)C(N)=O)C(C)C)[C@@H](C)CC [Compound 92] (H-[NMeY][Aib]EGTFISDYSI[Aib]LDR[Aib]AQ[Aib]K([AEEA-γGlu-AEEA-γGlu-C18 diacid])FVNWLLAQSPSSGAPPPS-NH2) | – | – | ≥ 60 mg/mL | ≥ 15 mg/mL
CC[C@H](C)[C@H](NC(=O)[C@H](Cc1ccccc1)NC(=O)[C@@H](NC(=O)CNC(=O)[C@H](CCC(=O)O)NC(=O)C(C)(C)NC(=O)[C@H](Cc1ccc(O)cc1)NC)[C@@H](C)O)C(=O)N[C@@H](CO)C(=O)N[C@@H](CC(=O)O)C(=O)N[C@@H](Cc1ccc(O)cc1)C(=O)N[C@@H](CO)C(=O)N[C@H](C(=O)NC(C)(C)C(=O)N[C@@H](CC(C)C)C(=O)N[C@@H](CC(=O)O)C(=O)N[C@@H](CCCNC(=N)N)C(=O)NC(C)(C)C(=O)N[C@@H](C)C(=O)N[C@@H](CCC(N)=O)C(=O)NC(C)(C)C(=O)N[C@@H](CCCCNC(=O)COCCOCCNC(=O)CC[C@H](NC(=O)CC[C@H](NC(=O)CCCCCCCCCCCCCCCCC(=O)O)C(=O)O)C(=O)O)C(=O)N[C@@H](Cc1ccccc1)C(=O)N[C@H](C(=O)N[C@@H](CC(N)=O)C(=O)N[C@@H](Cc1c[nH]c2ccccc12)C(=O)N[C@@H](CC(C)C)C(=O)N[C@@H](CC(C)C)C(=O)N[C@@H](C)C(=O)N[C@@H](CCC(N)=O)C(=O)N[C@@H](CO)C(=O)N1CCC[C@H]1C(=O)N[C@@H](CO)C(=O)N[C@@H](CO)C(=O)NCC(=O)N[C@@H](C)C(=O)N1CCC[C@H]1C(=O)N1CCC[C@H]1C(=O)N1CCC[C@H]1C(=O)N[C@@H](CO)C(N)=O)C(C)C)[C@@H](C)CC [Compound 93] (H-[NMeY][Aib]EGTFISDYSI[Aib]LDR[Aib]AQ[Aib]K([AEEA-γGlu-γGlu-C18 diacid])FVNWLLAQSPSSGAPPPS-NH2) | – | – | ≥ 60 mg/mL | ≥ 15 mg/mL
